“Also recorded” adds a separate entry of the source. Where two headings read alike, the source gives them in different places.
Columns and labels:
Type in all cases: cell-based
[1] = molecular target: T1, human μ-opioid receptor, OPRM (Homo sapiens, UniProt P35372); assay: PathHunter β-arrestin 2 assay, OPRM cell line; conditions: for OPRM β-ARR2 Emax (%): Example 3, Tables 5-7; for β-arrestin pathway activation / bARR2 recruitment, in words: OPRM
T1 construct: host or cells: HEK-293 overexpressing β-arrestin2 fused to a β-galactosidase fragment
T1 sequence (P35372 whole entry, the tested form may be a part): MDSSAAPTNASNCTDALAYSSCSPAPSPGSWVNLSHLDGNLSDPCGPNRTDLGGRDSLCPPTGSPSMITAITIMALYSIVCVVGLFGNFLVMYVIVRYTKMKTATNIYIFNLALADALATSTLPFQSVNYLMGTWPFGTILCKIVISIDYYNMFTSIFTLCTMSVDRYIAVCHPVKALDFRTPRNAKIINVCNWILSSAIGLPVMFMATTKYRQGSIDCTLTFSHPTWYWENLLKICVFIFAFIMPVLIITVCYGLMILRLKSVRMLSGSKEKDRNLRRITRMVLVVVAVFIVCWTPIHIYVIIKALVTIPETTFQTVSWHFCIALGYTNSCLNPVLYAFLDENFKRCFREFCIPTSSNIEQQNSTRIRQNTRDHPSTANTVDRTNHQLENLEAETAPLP
Description: (§1) Human embryonic kidney 293 (HEK-293) cells which transfected overexpress (3-arrestin2 fused β-galactosidase fragment were purchased from DiscoverX. Human OPRM1 gene (NM 000914.3, encoding human μ-opioid receptor, OPRM) and Human OPRD1 gene (NM 000911.3, encoding human δ-opioid receptor, OPRD) were fused to a pCMV-ProLink plasmid which contains complementary β-galactosidase fragment purchased from DiscoverX. To generate human OPRM1 or OPRD1 expression cell lines, HEK-293 cells were transfected to prepared plasmid and grown in DMEM medium with 10% fetal bovine serum, 150 μg/mL Hygromycin B and 500 μg/mL G418.
(§2) The PathHunter enzyme assay was performed to measure the agonist's capability of β-arrestin 2 pathway activation. When agonists bind to G protein-coupled receptor (GPCR), the receptor pathway is sequentially activated from G protein to β-arrestin 2 recruitment.
(§3) Because […] β-arrestin 2 and C-terminal of GPCR have a fragment of β-galactosidase, recruitment of β-arrestin 2 to GPCR forms the whole β-galactosidase. The functionality of the whole β-galactosidase is detected by chemiluminescence (FlexStation3, Molecular Devices).
(§4) cAMP and β-arrestin assays described above were conducted to decide whether candidate compounds were μ- and/or δ-opioid receptor bias agonists for the G-protein pathway. All assays produced the concentration-response curve, and the curve data was validated by a quality control factor named Z′ factor. Because half-maximal effect concentration (EC50) depends on the population of receptors, the maximal asymptote of the concentration curve was used. Efficacy data of candidates was normalized by comparison to reference agonists DAMGO and SNC80 for OPRM and OPRD.

[2] = molecular target: T2, human δ-opioid receptor, OPRD (Homo sapiens, UniProt P41143); assay: PathHunter β-arrestin 2 assay, OPRD cell line; conditions: for β-arrestin pathway activation / bARR2 recruitment, in words: OPRD
T2 construct: host or cells: HEK-293 overexpressing β-arrestin2 fused to a β-galactosidase fragment
T2 sequence (P41143 whole entry, the tested form may be a part): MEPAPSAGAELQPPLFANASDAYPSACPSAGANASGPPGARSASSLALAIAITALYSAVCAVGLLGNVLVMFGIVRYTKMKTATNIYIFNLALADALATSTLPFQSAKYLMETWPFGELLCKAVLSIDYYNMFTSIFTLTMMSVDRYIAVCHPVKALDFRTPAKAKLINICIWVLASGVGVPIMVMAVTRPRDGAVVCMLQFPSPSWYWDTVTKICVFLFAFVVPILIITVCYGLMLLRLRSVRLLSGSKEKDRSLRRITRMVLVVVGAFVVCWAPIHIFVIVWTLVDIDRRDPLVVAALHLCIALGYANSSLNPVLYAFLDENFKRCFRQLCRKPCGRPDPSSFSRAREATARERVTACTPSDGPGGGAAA
Description: as §1, §2, §3, §4

[3] = molecular target: T1, human μ-opioid receptor, OPRM; assay: Dominant assay: cAMP assay with/without irreversible antagonist β-FNA, OPRM cell line; conditions: for maximal response on decreasing receptor population (dominant tendency), in words: OPRM cell lines, β-FNA
Description: (§5) To confirm the agonist's efficacy in a nature-like system, we need inactivation of target receptors on the cell membrane. Most cell lines have an abundant target receptor population (also known as spare receptors). Therefore, agonists have more opportunity to constitute agonist-receptor conformation. In this environment, not only full agonists but also partial agonists can reach maximal response.
(§6) If the partial agonist is selected as a full agonist, translational in vivo research will likely fail.
(§7) Non-competitive, irreversible antagonists can be applicable to judge the pharmacological character of agonists because they permanently decrease the receptor population in the cell line system. β-FNA or β-CNA is used as a non-competitive and irreversible antagonist for OPRM, OPRD. Before cAMP assay, cells were incubated with β-FNA or β-CNA for 40 minutes. Afterwards, the procedure is the same.
(§8) If a partial agonist compound acts as a full agonist due to receptor population (pseudo full agonist), it cannot sustain maximal response with reduced receptor population. However, a full agonist compound maintains their maximal response even though increased EC50.

[4] = molecular target: T2, human δ-opioid receptor, OPRD; assay: Dominant assay: cAMP assay with/without irreversible antagonist β-CNA, OPRD cell line; conditions: for maximal response on decreasing receptor population (dominant tendency), in words: OPRD cell lines, β-CNA
Description: as §5, §6, §7, §8

[5] = addition of β-FNA, Example 3, Tables 5-7, read-out: OPRM Gi β-FNA (+) EC50
[6] = addition of β-FNA, Example 3, Tables 5-7, read-out: OPRM Gi β-FNA (+) Emax (%)
[7] = addition of β-FNA, repeated dominant assay, Example 4, Tables 8-10
[8] = addition of β-FNA, repeated dominant assay, Example 4, Tables 8-10, read-out: OPRM Gi β-FNA (+) EC50
[9] = no addition of β-FNA, Example 3, Tables 5-7, read-out: OPRM Gi β-FNA (−) EC50
[10] = no addition of β-FNA, Example 3, Tables 5-7, read-out: OPRM Gi β-FNA (−) Emax (%)
[11] = no addition of β-FNA, repeated dominant assay, Example 4, Tables 8-10, read-out: OPRM Gi β-FNA (−) EC50
[12] = no addition of β-FNA, repeated dominant assay, Example 4, Tables 8-10, read-out: OPRM Gi β-FNA (−) Emax (%)
[13] = addition of β-CNA, Example 3, Tables 5-7
[14] = addition of β-CNA, repeated dominant assay, Example 4, Tables 8-10
[15] = addition of β-CNA, repeated dominant assay, Example 4, Tables 8-10, read-out: OPRD Gi β-CNA (+) EC50
[16] = no addition of β-CNA, Example 3, Tables 5-7
[17] = no addition of β-CNA, repeated dominant assay, Example 4, Tables 8-10, read-out: OPRD Gi β-CNA (−) EC50
[18] = no addition of β-CNA, repeated dominant assay, Example 4, Tables 8-10, read-out: OPRD Gi β-CNA (−) Emax (%)
[19] = addition of β-FNA, Example 3, Tables 5-7
[20] = no addition of β-FNA, Example 3, Tables 5-7
[21] = no addition of β-FNA, repeated dominant assay, Example 4, Tables 8-10
[22] = addition of β-CNA, Example 3, Tables 5-7, read-out: OPRD Gi β-CNA (+) EC50
[23] = no addition of β-CNA, Example 3, Tables 5-7, read-out: OPRD Gi β-CNA (−) EC50
[24] = no addition of β-CNA, repeated dominant assay, Example 4, Tables 8-10
[25] = addition of β-FNA, repeated dominant assay, Example 4, Tables 8-10, read-out: OPRM Gi β-FNA (+) Emax (%)
[26] = addition of β-CNA, Example 3, Tables 5-7, read-out: OPRD Gi β-CNA (+) Emax (%)
[27] = addition of β-CNA, repeated dominant assay, Example 4, Tables 8-10, read-out: OPRD Gi β-CNA (+) Emax (%)

Row | Compound | OPRM β-ARR2 Emax (%) [1] | β-arrestin pathway activation / bARR2 recruitment, in words [1] | OPRD β-ARR2 Emax (%) ([2]; Example 3, Tables 5-7) | β-arrestin pathway activation / bARR2 recruitment, in words [2] | maximal response on decreasing receptor population (dominant tendency), in words [3] | EC50 [3, 5] | Emax [3, 6] | OPRM Gi β-FNA (+) Emax (%) [3, 7] | EC50 [3, 8] | EC50 [3, 9] | EC50 [3, 11] | OPRD Gi β-CNA (+) Emax (%) [4, 13] | OPRD Gi β-CNA (+) Emax (%) [4, 14] | EC50 [4, 15] | OPRD Gi β-CNA (−) Emax (%) [4, 16] | EC50 [4, 17] | maximal response on decreasing receptor population (dominant tendency), in words [4] | EC50 [4, 22] | EC50 [4, 23] | OPRD Gi β-CNA (−) Emax (%) [4, 24] | other results
1 | CN(C)C(CNC(=O)Cc1ccc2c(c1)OCCO2)c1ccccc1 (single isomer, unassigned) [Compound 4] | 4.8% | lower bARR2 recruitment as compared to morphine | 2.8% | lower bARR2 recruitment as compared to morphine | better efficacy than racemic compound 1 | 10.9 µM | 24.6% | 45.02% | 12 µM | 20 µM | 9.4 µM | 17.23% | 108.1% | 10 µM | 20.59% | 8.65 µM |  |  |  |  | Emax [3, 10]: 82.8%; Emax [3, 12]: 100%; Emax [4, 18]: 100%
2 | CN(C)C(CNC(=O)Cc1ccc2c(c1)OCCO2)c1ccccc1 (single isomer, unassigned) [Compound 5] | 23.1% |  | 5.7% |  | superior efficacy-dominant properties | 2.45 µM |  | 77.98% | 4.07 µM | 0.292 µM | 1.65 µM | 79.38% | 65.27% | 8.79 µM | 111% | 7.33 µM | superior efficacy-dominant properties | 6.1 µM | 6.67 µM | 100% | OPRM Gi β-FNA (+) Emax (%) [3, 19]: 21.91%; OPRM Gi β-FNA (−) Emax (%) [3, 20]: 102%; OPRM Gi β-FNA (−) Emax (%) [3, 21]: 101.9%
3 | CN1CCc2cc(C(CNC(=O)Nc3ccc(F)cc3)N(C)C)ccc21 (single isomer, unassigned) [Compound 6] | 8.5% | lower bARR2 recruitment as compared to morphine |  | lower bARR2 recruitment as compared to morphine | resistant to decreasing spare receptors; also recorded: showed efficacy dominance on both types of opioid receptors; also recorded: resistant to decreasing spare receptor-induced tendency; also recorded: maintained a higher maximal response as compared to compound 2 | 2.48 µM | 77% |  | 8.49 µM | 0.519 µM | 1.86 µM |  |  | 13.5 µM | 128.1% | 4.32 µM | resistant to decreasing spare receptors; also recorded: showed efficacy dominance on both types of opioid receptors; also recorded: resistant to decreasing spare receptor-induced tendency; also recorded: maintained a higher maximal response as compared to compound 2 | 48.3 µM | 8.91 µM |  | Emax ([2]; Example 3, Tables 5-7, read-out: OPRD β-ARR2 Emax (%)): 10.5%; Emax [3, 25]: 90.1%; Emax [3, 10]: 106%; Emax [3, 12]: 100%; Emax [4, 26]: 119%; Emax [4, 27]: 81.4%; Emax [4, 18]: 102%
4 | CN1CCc2cc(C(CNC(=O)Nc3ccc(F)cc3)N(C)C)ccc21 (single isomer, unassigned) [Compound 7] | 22.0% |  | 6.4% |  | resistant to decreasing spare receptors; also recorded: showed efficacy dominance on both types of opioid receptors; also recorded: resistant to decreasing spare receptor-induced tendency; also recorded: maintained a higher maximal response as compared to compound 2 | 0.728 µM |  | 90.07% | 6.95 µM | 0.0416 µM | 2.31 µM | 100.2% | 81.99% | 3.44 µM | 98.3% | 1.05 µM | resistant to decreasing spare receptors; also recorded: showed efficacy dominance on both types of opioid receptors; also recorded: resistant to decreasing spare receptor-induced tendency; also recorded: maintained a higher maximal response as compared to compound 2 | 4.9 µM | 0.517 µM | 100.2% | OPRM Gi β-FNA (+) Emax (%) [3, 19]: 85.93%; OPRM Gi β-FNA (−) Emax (%) [3, 20]: 95.81%; OPRM Gi β-FNA (−) Emax (%) [3, 21]: 100.9%
5 | Cc1ccccc1NC(=O)NCC(c1ccc2c(c1)CCO2)N(C)C (single isomer, unassigned) [Compound 8] | 5.4% | lower bARR2 recruitment as compared to morphine | 5.1% | lower bARR2 recruitment as compared to morphine |  | 14.2 µM | 43.2% |  | 7.78 µM | 0.734 µM | 0.219 µM |  |  | 8.69 µM | 95.54% | 16.9 µM |  | 35.7 µM | 15 µM | 102.7% | Emax [3, 25]: 77.5%; Emax [3, 10]: 84.7%; Emax [3, 12]: 91.6%; Emax [4, 26]: 42.7%; Emax [4, 27]: 42.7%
6 | Cc1ccccc1NC(=O)NCC(c1ccc2c(c1)CCO2)N(C)C (single isomer, unassigned) [Compound 9] | 22.9% |  | 16.1% |  |  | 1.66 µM |  | 74.49% | 0.791 µM | 0.0733 µM | 0.0713 µM | 51.61% | 51.61% | 5.86 µM | 66.82% | 18.1 µM |  | 5.86 µM | 2.79 µM | 139% | OPRM Gi β-FNA (+) Emax (%) [3, 19]: 52.64%; OPRM Gi β-FNA (−) Emax (%) [3, 20]: 98.76%; OPRM Gi β-FNA (−) Emax (%) [3, 21]: 91.98%
7 | C[C@@H](NC(=O)[C@@H](N)Cc1ccc(O)cc1)C(=O)NCC(=O)N(C)[C@@H](Cc1ccccc1)C(=O)NCCO [DAMGO, [D-Ala^2, NMe-Phe^4, Gly-ol^5]-enkephalin, reference compound] |  |  |  |  | full agonist |  |  |  |  |  |  |  |  |  |  |  |  |  |  |  | 
8 | C=CCN1C[C@H](C)N([C@H](c2ccc(C(=O)N(CC)CC)cc2)c2cccc(OC)c2)C[C@H]1C [SNC80, reference compound] |  |  |  |  |  |  |  |  |  |  |  |  |  |  |  |  | full agonist |  |  |  | completeness of concentration-response curve, in words ([4]; OPRD system): produced a full concentration-response curve

From US20220204449A1, “BIASED AGONISTS OF OPIOID RECEPTORS” (ILDONG PHARMACEUTICAL CO., LTD., priority 2020, published 2022)
